The record followed here is patent US8691991B2 (priority 2004, dated 2014).

The assay deals with Pseudotyped HIV vector. Put plainly: Pseudotyped HIV vector expressing luciferase reporter assay. In kind it is cell-based. The conditions noted are these: Human immunodeficiency virus 1. How it is done: Pseudotyped HIV Vector Expressing Luciferase Reporter Assay
Expression of luciferase reporter following viral integration was performed essentially as described in Jármy, G. et al., J. Medical Virology, 64:223-231, 2001.
For orientation: Reporter assays use an easily measured gene product as a stand-in for the process of interest.
As a reminder, the IC50 is the concentration that inhibits the measured activity by half. Low readings indicate higher potency, high ones lower potency. In the case of `Cn1c(=O)c(C(=O)NCCCN2CCOCC2)c(O)c2ncc(Cc3ccc(F)cc3)cc21` [Example 97, 7-[(4-Fluorophenyl)methyl]-4-hydroxy-1-methyl-N-[3-(4-morpholinyl)propyl]-2-oxo-1,2-dihydro-1,5-naphthyridine-3-carboxamide], the half-inhibitory concentration (IC50) is under 10 nM.

Compound `COCCNC(=O)c1c(O)c2ncc(Cc3ccc(F)cc3)cc2n(C)c1=O` [Example 98, 7-[(4-Fluorophenyl)methyl]-4-hydroxy-1-methyl-N-[2-(methyloxy)ethyl]-2-oxo-1,2-dihydro-1,5-naphthyridine-3-carboxamide] gave a half-inhibitory concentration (IC50) of under 10 nM.

Consider `Cn1c(=O)c(C(=O)NCCCN2CCCC2=O)c(O)c2ncc(Cc3ccc(F)cc3)cc21` [Example 99, 7-[(4-Fluorophenyl)methyl]-4-hydroxy-1-methyl-2-oxo-N-[3-(2-oxo-1-pyrrolidinyl)propyl]-1,2-dihydro-1,5-naphthyridine-3-carboxamide], for which the IC50 is under 10 nM.

`Cn1c(=O)c(C(=O)NCCO)c(O)c2ncc(Cc3ccc(F)cc3)cc21` [Example 101, 7-[(4-Fluorophenyl)methyl]-4-hydroxy-N-(2-hydroxyethyl)-1-methyl-2-oxo-1,2-dihydro-1,5-naphthyridine-3-carboxamide]: the IC50 was under 10 nM.

As to `COCCNC(=O)c1c(O)c2ncc(Cc3ccc(F)cc3)cc2n(CC(=O)N2CCN(C)CC2)c1=O` [Example 102, 7-[(4-Fluorophenyl)methyl]-4-hydroxy-N-[2-(methyloxy)ethyl]-1-[2-(4-methyl-1-piperazinyl)-2-oxoethyl]-2-oxo-1,2-dihydro-1,5-naphthyridine-3-carboxamide], the concentration for half-maximal inhibition (IC50) is under 10 nM.

The compound `COCCNC(=O)c1c(O)c2ncc(Cc3ccc(F)cc3)cc2n(CC(=O)N(C)CCOC)c1=O` [Example 104, 7-[(4-Fluorophenyl)methyl]-4-hydroxy-1-(2-{methyl[2-(methyloxy)ethyl]amino}-2-oxoethyl)-N-[2-(methyloxy)ethyl]-2-oxo-1,2-dihydro-1,5-naphthyridine-3-carboxamide] yielded a 50% inhibitory concentration (IC50) of under 10 nM.

As for `CCOCCNC(=O)c1c(O)c2ncc(Cc3ccc(F)cc3)cc2n(CC(=O)N(C)CCOC)c1=O` [Example 107, N-[2-(ethyloxy)ethyl]-7-[(4-fluorophenyl)methyl]-4-hydroxy-1-(2-{methyl[2-(methyloxy)ethyl]amino}-2-oxoethyl)-2-oxo-1,2-dihydro-1,5-naphthyridine-3-carboxamide], the concentration for half-maximal inhibition (IC50) is under 10 nM.

Compound `CCn1c(=O)c(C(=O)N[C@@H](C)CO)c(O)c2ncc(Cc3ccc(F)cc3)cc21` [Example 124, Sodium 1-ethyl-7-[(4-fluorophenyl)methyl]-3-({[(1S)-2-hydroxy-1-methylethyl]amino}carbonyl)-2-oxo-1,2-dihydro-1,5-naphthyridin-4-olate] yielded a concentration for half-maximal inhibition (IC50) of under 10 nM.

Turning to `COCCNC(=O)c1c(O)c2ncc(Cc3ccc(F)cc3)cc2n(CC(N)=O)c1=O` [Example 162, 1-(2-Amino-2-oxoethyl)-7-[(4-fluorophenyl)methyl]-4-hydroxy-N-[2-(methyloxy)ethyl]-2-oxo-1,2-dihydro-1,5-naphthyridine-3-carboxamide], the IC50 was under 10 nM.

As to `O=C(NCCO)c1c(O)c2ncc(Cc3ccc(F)cc3)cc2n(-c2ccc(F)cc2)c1=O` [Example 200, 1-(4-Fluorophenyl)-7-[(4-fluorophenyl)methyl]-4-hydroxy-N-(2-hydroxyethyl)-2-oxo-1,2-dihydro-1,5-naphthyridine-3-carboxamide], the IC50 is under 10 nM.

Turning to `CNC(=O)c1c(O)c2ncc(Cc3ccc(F)cc3)cc2n(CC(=O)N(C)C)c1=O` [Example 237, 1-[2-(Dimethylamino)-2-oxoethyl]-7-(4-fluorobenzyl)-4-hydroxy-N-methyl-2-oxo-1,2-dihydro-1,5-naphthyridine-3-carboxamide], the 50% inhibitory concentration (IC50) is under 10 nM.
